Results reported in patent publication US20230295162A1 (EÖTVÖS LORÁND TUDOMÁNYEGYETEM, priority 2020, published 2023).
Read-outs that look alike come from different tables or passages of the source.

Legend:
[1] = test system: PANC-1 (human pancreatic carcinoma) cells; assay: Impedance-based viability assay (xCELLigence SP), long treatment; format: cell-based; conditions: 72 h, read-out: cytotoxicity expressed in IC50, PANC-1
Description: (Gibco®/Invitrogen Corporation, New York, NY, USA).
Data obtained from each experiment represent mathematical averages.

[2] = test system: Panc1 pancreatic cancer cell line; assay: CellTiter-Glo IC50 (Example 19); format: cell-based; conditions: Homo sapiens, PANC-1, 72 h
In short: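 Cells were seeded at 1000 cells/well and kept at 37 °C, 5% CO2. After compound treatment, viability was read by CellTiter-Glo luminescence as % of untreated control. IC50 came from a non-linear log(inhibitor) vs response fit with variable slope.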

Detroit 562 cell line = assay: Additional in vitro IC50 tests (Table 3); format: cell-based; conditions: Homo sapiens
In short: (§1)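 Cells at 1000/well, viability by CellTiter-Glo luminescence after compound treatment, as % of untreated control. IC50 from variable-slope log(inhibitor) vs response nonlinear regression.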

EBC-1 cell line = assay: Additional in vitro IC50 tests (Table 3); format: cell-based; conditions: Homo sapiens
In short: as §1

Fadu cell line = assay: Additional in vitro IC50 tests (Table 3); format: cell-based; conditions: Homo sapiens
In short: as §1

H2228 cell line = assay: Additional in vitro IC50 tests (Table 3); format: cell-based; conditions: Homo sapiens, NCI-H2228
In short: as §1

SCC-25 cell line = assay: Additional in vitro IC50 tests (Table 3); format: cell-based; conditions: Homo sapiens
In short: as §1

[3] = test system: Capan-1 (pancreas, adenocarcinoma) cells; assay: Cell viability assay, CellTiter-Glo (Example 21); format: cell-based, human; conditions: 72 h treatment
In short: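 Capan-1 cells were seeded at 1000 cells/well in flat-bottomed white 96 well plates (BRANDplates®), with density optimized for cell size and growth rate. Following compound treatment, viability was measured with the CellTiter-Glo® luminescent assay (Promega) per the manufacturer's instructions, reading luminescence on a BioTek Synergy 2 Multi-Mode Reader.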

[4] = test system: DU 145 (prostate, carcinoma) cells; assay: Cell viability assay, CellTiter-Glo (Example 21); format: cell-based, human; conditions: 72 h
In short: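 DU 145 cancer cell viability was assessed with the CellTiter-Glo® luminescent assay (Promega, Madison, WI, USA), following the manufacturer's instructions. Cells were seeded at 1000 cells/well in flat-bottomed white 96 well plates, and after treatment luminescence was read on a BioTek Synergy 2 Multi-Mode Reader.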

[5] = test system: Detroit 562 (pharynx, carcinoma) cells; assay: Cell viability assay, CellTiter-Glo (Example 21); format: cell-based, human; conditions: 72 h treatment
In short: (§2)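 Seeding density per line: Panc-1 750, FaDu 1000, Detroit 562 and MDA-MB-453 1500 cells/well. Viability after treatment read by CellTiter-Glo luminescence; dose-response curves fitted by four-parameter variable-slope non-linear regression.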

[6] = test system: EBC-1 (lung, squamous cell carcinoma) cells; assay: Cell viability assay, CellTiter-Glo (Example 21); format: cell-based, human; conditions: 72 h treatment
In short: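 EBC-1 lung squamous cell carcinoma cells were seeded at 1000 cells/well in flat-bottomed white 96 well plates. After compound treatment, viability was measured with the CellTiter-Glo luminescent assay following the manufacturer's instructions, and luminescence was read on a BioTek Synergy 2 Multi-Mode microplate reader.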

[7] = test system: FaDu (pharynx, squamous cell carcinoma) cells; assay: Cell viability assay, CellTiter-Glo (Example 21); format: cell-based, human; conditions: 72 h treatment
In short: as §2

[8] = test system: LNCaP (prostate, carcinoma) cells; assay: Cell viability assay, CellTiter-Glo (Example 21); format: cell-based, human; conditions: 72 h
In short: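 LNCaP prostate carcinoma cell viability was assessed with the CellTiter-Glo® luminescent assay (Promega), following the manufacturer's instructions. Cells were seeded at 1500 cells/well into flat-bottomed white 96 well plates, treated, and then luminescence was read on a BioTek Synergy 2 Multi-Mode Reader. Dose-response curves were fitted in GraphPad Prism 8.4.2 by four-parameter variable-slope non-linear regression.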

[9] = test system: MDA-MB-231 (breast, adenocarcinoma) cells; assay: Cell viability assay, CellTiter-Glo (Example 21); format: cell-based, human; conditions: 72 h treatment
In short: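 MDA-MB-231 breast adenocarcinoma cells were seeded at 1500 cells/well in flat-bottomed white 96 well plates (BRANDplates®, cat. no.: 781965). Following compound exposure, viability was assessed with the CellTiter-Glo® luminescent assay (Promega) following the manufacturer's protocol, and luminescence was read on a BioTek Synergy 2 Multi-Mode Reader.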

[10] = test system: MDA-MB-453 (breast, carcinoma) cells; assay: Cell viability assay, CellTiter-Glo (Example 21); format: cell-based, human; conditions: 72 h treatment
In short: as §2

[11] = test system: MIA PaCa-2 (pancreas, carcinoma) cells; assay: Cell viability assay, CellTiter-Glo (Example 21); format: cell-based, human; conditions: 72 h treatment
In short: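 MIA PaCa-2 pancreatic carcinoma cells were seeded at 1000 cells/well in flat-bottomed white 96 well plates (BRANDplates®, cat. no.: 781965) and treated with compound. Viability was then determined with the CellTiter-Glo® luminescent cell viability assay (Promega) following the manufacturer's instructions, with luminescence read on a BioTek Synergy 2 Multi-Mode Reader.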

[12] = test system: PC-3 (prostate, adenocarcinoma) cells; assay: Cell viability assay, CellTiter-Glo (Example 21); format: cell-based, human; conditions: 72 h treatment
In short: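 PC-3 prostate adenocarcinoma cells were seeded at 1000 cells/well in flat-bottomed white 96 well plates and treated with compounds. Viability was then determined with the CellTiter-Glo® luminescent assay (Promega) following the manufacturer's instructions, with luminescence read on a BioTek Synergy 2 Multi-Mode Reader.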

[13] = test system: Panc-1 (pancreas, carcinoma) cells; assay: Cell viability assay, CellTiter-Glo (Example 21); format: cell-based, human; conditions: 72 h treatment
In short: as §2

[14] = test system: SCC-25 (tongue, squamous cell carcinoma) cells; assay: Cell viability assay, CellTiter-Glo (Example 21); format: cell-based, human; conditions: 72 h treatment
In short: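 SCC-25 tongue squamous cell carcinoma cells were seeded at 1000 cells/well in flat-bottomed white 96 well plates, treated with compound, and viability was then determined with the CellTiter-Glo luminescent assay (Promega) following the manufacturer's instructions. Luminescence was read on a BioTek Synergy 2 Multi-Mode Reader.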

Panc-1 human cell line = assay: Cytotoxicity on Panc-1, xCELLigence SP, IC50 after 24 h, 48 h, 72 h and 96 h (Example 22)

O=C1C2=C(CCN(Cc3ccccc3)C2)N2CCN=C2N1Cc1ccc(C(F)(F)F)cc1 [I/1, reference compound]
IC50 [1]: 48 nM
IC50 [2]: 74 nM
IC50 (Detroit 562 cell line): 32 nM
IC50 (EBC-1 cell line): 76 nM
IC50 (Fadu cell line): 90 nM
IC50 (H2228 cell line): 105 nM
IC50 (SCC-25 cell line): 166 nM
Capan-1 (pancreas, adenocarcinoma) cell viability (% of control) ([3]; 3.7 nM): 100.3 ± 4.0 % of control
Capan-1 (pancreas, adenocarcinoma) cell viability (% of control) ([3]; 11.1 nM): 99.2 ± 3.8 % of control
Capan-1 (pancreas, adenocarcinoma) cell viability (% of control) ([3]; 100 nM): 88.1 ± 4.2 % of control
Capan-1 (pancreas, adenocarcinoma) cell viability (% of control) ([3]; 300 nM): 36.8 ± 3.4 % of control
DU 145 cell viability ([4]; 3.7 nM): 99.0 ± 4.6 % of control
DU 145 cell viability ([4]; 11.1 nM): 101.3 ± 4.3 % of control
DU 145 cell viability ([4]; 100 nM): 17.5 ± 4.2 % of control
DU 145 cell viability ([4]; 300 nM): 8.1 ± 2.2 % of control
Detroit 562 (pharynx, carcinoma) cell viability (% of control) ([5]; 3.7 nM): 104.1 ± 4.8 % of control
Detroit 562 (pharynx, carcinoma) cell viability (% of control) ([5]; 11.1 nM): 104.0 ± 17.2 % of control
Detroit 562 (pharynx, carcinoma) cell viability (% of control) ([5]; 100 nM): 35.8 ± 14.4 % of control
Detroit 562 (pharynx, carcinoma) cell viability (% of control) ([5]; 300 nM): 32.0 ± 5.0 % of control
EBC-1 (lung, squamous cell carcinoma) cell viability (% of control) ([6]; 3.7 nM): 98.8 ± 5.8 % of control
EBC-1 (lung, squamous cell carcinoma) cell viability (% of control) ([6]; 11.1 nM): 110.1 ± 11.9 % of control
EBC-1 (lung, squamous cell carcinoma) cell viability (% of control) ([6]; 100 nM): 43.4 ± 6.8 % of control
EBC-1 (lung, squamous cell carcinoma) cell viability (% of control) ([6]; 300 nM): 24.2 ± 2.1 % of control
FaDu (pharynx, squamous cell carcinoma) cell viability (% of control) ([7]; 3.7 nM): 102.4 ± 7.4 % of control
FaDu (pharynx, squamous cell carcinoma) cell viability (% of control) ([7]; 11.1 nM): 98.8 ± 4.7 % of control
FaDu (pharynx, squamous cell carcinoma) cell viability (% of control) ([7]; 100 nM): 46.9 ± 5.6 % of control
FaDu (pharynx, squamous cell carcinoma) cell viability (% of control) ([7]; 300 nM): 25.6 ± 5.3 % of control
LNCaP cell viability ([8]; 3.7 nM): 98.6 ± 5.7 % of control
LNCaP cell viability ([8]; 11.1 nM): 101.4 ± 3.3 % of control
LNCaP cell viability ([8]; 100 nM): 28.1 ± 1.7 % of control
LNCaP cell viability ([8]; 300 nM): 15.2 ± 1.7 % of control
MDA-MB-231 (breast, adenocarcinoma) cell viability (% of control) ([9]; 3.7 nM): 101.0 ± 4.4 % of control
MDA-MB-231 (breast, adenocarcinoma) cell viability (% of control) ([9]; 11.1 nM): 97.9 ± 1.1 % of control
MDA-MB-231 (breast, adenocarcinoma) cell viability (% of control) ([9]; 100 nM): 87.9 ± 4.4 % of control
MDA-MB-231 (breast, adenocarcinoma) cell viability (% of control) ([9]; 300 nM): 56.8 ± 2.1 % of control
MDA-MB-453 (breast, carcinoma) cell viability (% of control) ([10]; 3.7 nM): 111.0 ± 7.3 % of control
MDA-MB-453 (breast, carcinoma) cell viability (% of control) ([10]; 11.1 nM): 110.8 ± 2.3 % of control
MDA-MB-453 (breast, carcinoma) cell viability (% of control) ([10]; 100 nM): 37.9 ± 1.3 % of control
MDA-MB-453 (breast, carcinoma) cell viability (% of control) ([10]; 300 nM): 32.5 ± 0.5 % of control
MIA PaCa-2 (pancreas, carcinoma) cell viability (% of control) ([11]; 3.7 nM): 105.7 ± 8.5 % of control
MIA PaCa-2 (pancreas, carcinoma) cell viability (% of control) ([11]; 11.1 nM): 108.5 ± 11.2 % of control
MIA PaCa-2 (pancreas, carcinoma) cell viability (% of control) ([11]; 100 nM): 43.4 ± 13.5 % of control
MIA PaCa-2 (pancreas, carcinoma) cell viability (% of control) ([11]; 300 nM): 17.3 ± 8.8 % of control
PC-3 (prostate, adenocarcinoma) cell viability (% of control) ([12]; 3.7 nM): 106.0 ± 2.8 % of control
PC-3 (prostate, adenocarcinoma) cell viability (% of control) ([12]; 11.1 nM): 102.4 ± 3.7 % of control
PC-3 (prostate, adenocarcinoma) cell viability (% of control) ([12]; 100 nM): 60.4 ± 5.2 % of control
PC-3 (prostate, adenocarcinoma) cell viability (% of control) ([12]; 300 nM): 33.3 ± 3.3 % of control
Panc-1 (pancreas, carcinoma) cell viability (% of control) ([13]; 3.7 nM): 105.8 ± 0.5 % of control
Panc-1 (pancreas, carcinoma) cell viability (% of control) ([13]; 11.1 nM): 104.6 ± 7.2 % of control
Panc-1 (pancreas, carcinoma) cell viability (% of control) ([13]; 100 nM): 81.8 ± 8.1 % of control
Panc-1 (pancreas, carcinoma) cell viability (% of control) ([13]; 300 nM): 56.9 ± 2.4 % of control
SCC-25 (tongue, squamous cell carcinoma) cell viability (% of control) ([14]; 3.7 nM): 108.5 ± 8.6 % of control
SCC-25 (tongue, squamous cell carcinoma) cell viability (% of control) ([14]; 11.1 nM): 105.5 ± 12.7 % of control
SCC-25 (tongue, squamous cell carcinoma) cell viability (% of control) ([14]; 100 nM): 76.7 ± 19.9 % of control
SCC-25 (tongue, squamous cell carcinoma) cell viability (% of control) ([14]; 300 nM): 37.6 ± 4.3 % of control
IC50 (Panc-1 human cell line; PANC-1, 72 h, read-out: IC50 (72 h) [nM]): 274 ± 15.9 nM
IC50 (Panc-1 human cell line; PANC-1, 96 h, read-out: IC50 (96 h) [nM]): 185 ± 44.4 nM
